Here are results for 28 compounds from patent US10251889B2, “Substituted pyrazolo[1,5-a]pyrimidine compounds as Trk kinase inhibitors” (Array BioPharma, Inc., priority 2009, dated 2019).

Jak2 (human Jak2 kinase domain, amino acids 808-1132), sequence (O60674 808-1132): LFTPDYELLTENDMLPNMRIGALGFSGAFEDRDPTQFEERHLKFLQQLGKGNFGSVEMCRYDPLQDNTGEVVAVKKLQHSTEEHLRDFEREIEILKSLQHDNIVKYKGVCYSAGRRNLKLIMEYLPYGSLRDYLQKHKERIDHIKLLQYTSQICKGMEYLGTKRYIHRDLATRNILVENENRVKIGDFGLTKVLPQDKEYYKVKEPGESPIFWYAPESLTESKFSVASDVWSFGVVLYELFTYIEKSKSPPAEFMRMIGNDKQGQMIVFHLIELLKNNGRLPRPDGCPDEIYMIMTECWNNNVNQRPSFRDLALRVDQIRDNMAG

This assay addresses Jak2 (human Jak2 kinase domain, amino acids 808-1132) (Homo sapiens (Human), UniProt O60674). The experiment in a line: Jak2 inhibition assay (Omnia kinase assay). The assay is classed as biochemical. As to conditions: read-out: Jak2 Enzyme (% inhibition at 1000 nM), Table 1; 1000 nM test compound. Here is the method: The assays described in Examples C, D, E and F for the determination of JAK1, JAK2, JAK3 and Tyk2 kinase activity, respectively, utilized the Omnia® Kinase fluorescence peptide substrate-based technology (Invitrogen). […] The reactions were therefore read at excitation 360 nm and emission was measured at 485 nm every 50 seconds for 45 minutes using a PerkinElmer EnVision Multilabel Plate Reader.
The final buffer conditions for each of the JAK1, JAK2, JAK3 and Tyk2 assays were as follows: 25 mM HEPES, pH 7.4, 10 mM MgCl2, 0.01% Triton X-100 and 1 mM DTT.
Two-μL aliquots of these were transferred to a fresh plate for a ten-fold intermediate dilution with assay buffer. Five-μL aliquots of the diluted compounds were then transferred to 20-μL of assay mixtures described in Examples C, D, E and F for a final concentration of DMSO of 2%. […] For each plate, percent of control (POC) values were calculated for each well according to the following equation:
where Xmax=Average Uninhibited Controls • Xmin=Average Background IC50's were estimated from the POC's using a standard 4-parameter logistic model:
where A=Minimum Y (Bottom Asymptote) • B=Maximum Y (Top Asymptote) • C=EC50 • D=Slope Factor • X=Compound Concentration (nM) • Y=POC
The IC50 is defined as the concentration of inhibitor at which the POC equals 50 for the fitted curve.
Compounds of Formula I were screened for their ability to inhibit Jak2 using the general enzyme inhibition assay method, in which the assay mixture contained 500 μM ATP, 10 μM Omnia® Y7 peptide (Catalog # IVGN KNZ3071C, Invitrogen Corporation, Carlsbad, Calif.) and 4 nM Jak2 in a total volume of 20 μL. Human Jak2 kinase domain comprising amino acids 808-1132 was purchased from Invitrogen Corporation, Carlsbad, Calif. (catalog # IVGN PV4210).
On to `CC1(O)CCC(NC(=O)c2cnn3ccc(N4CCC[C@@H]4c4cc(F)ccc4F)nc23)CC1` (single isomer, unassigned; diastereomer 1) [Example 50], for which the inhibition at 1 µM was determined as 73.7%. Then `C[C@@H](O)CNC(=O)c1cnn2ccc(N3CCCC3c3cc(F)ccc3F)nc12` (stereo in doubt) [Example 167, 5-((R)-2-(2,5-difluorophenyl)pyrrolidin-1-yl)-N-(2-hydroxypropyl)pyrazolo[1,5-a]pyrimidine-3-carboxamide], with 9.8%; and `CC(C)(C)NC(=O)c1cnn2ccc(N3CCC[C@@H]3c3cc(F)ccc3F)nc12` [Example 1, (R)—N-tert-butyl-5-(2-(2,5-difluorophenyl)pyrrolidin-1-yl)pyrazolo[1,5-a]pyrimidine-3-carboxamide], with 39.5%; and `O=C(Nc1ccccn1)c1cnn2ccc(N3CCC[C@@H]3c3cc(F)ccc3F)nc12` [Example 2, (R)-5-(2-(2,5-difluorophenyl)pyrrolidin-1-yl)-N-(pyridin-2-yl)pyrazolo[1,5-a]pyrimidine-3-carboxamide], with 19.1%. For the compound `Cc1cccnc1NC(=O)c1cnn2ccc(N3CCC[C@@H]3c3cc(F)ccc3F)nc12` [Example 3, (R)-5-(2-(2,5-difluorophenyl)pyrrolidin-1-yl)-N-(3-methylpyridin-2-yl)pyrazolo[1,5-a]pyrimidine-3-carboxamide], the inhibition at 1 µM is 10.1%.

In the case of `O=C(NCCN1CCOCC1)c1cnn2ccc(N3CCC[C@@H]3c3cc(F)ccc3F)nc12` [Example 4, (R)-5-(2-(2,5-difluorophenyl)pyrrolidin-1-yl)-N-(2-morpholinoethyl)pyrazolo[1,5-a]pyrimidine-3-carboxamide], the inhibition at 1 µM amounted to 18.8%. Then `Cc1ccc(CNC(=O)c2cnn3ccc(N4CCC[C@@H]4c4cc(F)ccc4F)nc23)o1` [Example 5, (R)-5-(2-(2,5-difluorophenyl)pyrrolidin-1-yl)-N-((5-methylfuran-2-yl)methyl)pyrazolo[1,5-a]pyrimidine-3-carboxamide], with 14.2%; and `Cn1ccc(NC(=O)c2cnn3ccc(N4CCC[C@@H]4c4cc(F)ccc4F)nc23)n1` [Example 6, (R)-5-(2-(2,5-difluorophenyl)pyrrolidin-1-yl)-N-(1-methyl-1H-pyrazol-3-yl)pyrazolo[1,5-a]pyrimidine-3-carboxamide], with 12.9%. Then `O=C(N[C@H]1CC[C@H](O)CC1)c1cnn2ccc(N3CCC[C@@H]3c3cc(F)ccc3F)nc12` [Example 7, 5-((R)-2-(2,5-difluorophenyl)pyrrolidin-1-yl)-N-((trans)-4-hydroxycyclohexyl)pyrazolo[1,5-a]pyrimidine-3-carboxamide], with 90%. Then `CC(C)(CO)NC(=O)c1cnn2ccc(N3CCC[C@@H]3c3cc(F)ccc3F)nc12` [Example 8, (R)-5-(2-(2,5-difluorophenyl)pyrrolidin-1-yl)-N-(1-hydroxy-2-methylpropan-2-yl)pyrazolo[1,5-a]pyrimidine-3-carboxamide], with 25.7%; and `CC(C)(CN1CCOCC1)NC(=O)c1cnn2ccc(N3CCC[C@@H]3c3cc(F)ccc3F)nc12` [Example 9, (R)-5-(2-(2,5-difluorophenyl)pyrrolidin-1-yl)-N-(2-methyl-1-morpholinopropan-2-yl)pyrazolo[1,5-a]pyrimidine-3-carboxamide], with 4.6%; and `CNC(=O)c1cnn2ccc(N3CCC[C@@H]3c3cc(F)ccc3F)nc12` [Example 10, (R)-5-(2-(2,5-difluorophenyl)pyrrolidin-1-yl)-N-methylpyrazolo[1,5-a]pyrimidine-3-carboxamide], with 47.5%. Regarding `O=C(O)C1CCN(C(=O)c2cnn3ccc(N4CCC[C@@H]4c4cc(F)ccc4F)nc23)CC1` [Example 11, (R)-1-(5-(2-(2,5-difluorophenyl)pyrrolidin-1-yl)pyrazolo[1,5-a]pyrimidine-3-carbonyl)piperidine-4-carboxylic Acid], the inhibition at 1 µM is 10.1%. Then `O=C(O)CC1CCN(C(=O)c2cnn3ccc(N4CCC[C@@H]4c4cc(F)ccc4F)nc23)CC1` [Example 12, (R)-2-(1-(5-(2-(2,5-difluorophenyl)pyrrolidin-1-yl)pyrazolo[1,5-a]pyrimidine-3-carbonyl)piperidin-4-yl)acetic Acid], with 4.5%; and `O=C(NC1CC1)c1cnn2ccc(N3CCC[C@@H]3c3cc(F)ccc3F)nc12` [Example 13, (R)—N-cyclopropyl-5-(2-(2,5-difluorophenyl)pyrrolidin-1-yl)pyrazolo[1,5-a]pyrimidine-3-carboxamide], with 41.4%.

Consider `O=C(NC1CCC1)c1cnn2ccc(N3CCC[C@@H]3c3cc(F)ccc3F)nc12` [Example 14, (R)—N-cyclobutyl-5-(2-(2,5-difluorophenyl)pyrrolidin-1-yl)pyrazolo[1,5-a]pyrimidine-3-carboxamide], for which the inhibition at 1 µM was 66.7%.

With `O=C(NC1(CO)CC1)c1cnn2ccc(N3CCC[C@@H]3c3cc(F)ccc3F)nc12` [Example 16, (R)-5-(2-(2,5-difluorophenyl)pyrrolidin-1-yl)-N-(1-(hydroxymethyl)cyclopropyl)pyrazolo[1,5-a]pyrimidine-3-carboxamide], the inhibition at 1 µM worked out at 31.7%. Consider `CC(C)(O)CNC(=O)c1cnn2ccc(N3CCC[C@@H]3c3cc(F)ccc3F)nc12` [Example 17, (R)-5-(2-(2,5-difluorophenyl)pyrrolidin-1-yl)-N-(2-hydroxy-2-methylpropyl)pyrazolo[1,5-a]pyrimidine-3-carboxamide], for which the inhibition at 1 µM came to 5.6%. Regarding `O=C(c1cnn2ccc(N3CCC[C@@H]3c3cc(F)ccc3F)nc12)N1CC[C@H](O)C1` [Example 18, (5-((R)-2-(2,5-difluorophenyl)pyrrolidin-1-yl)pyrazolo[1,5-a]pyrimidin-3-yl)((S)-3-hydroxypyrrolidin-1-yl)methanone], the inhibition at 1 µM worked out at 2.8%. Then `O=C(c1cnn2ccc(N3CCC[C@@H]3c3cc(F)ccc3F)nc12)N1CC[C@@H](O)C1` [Example 19, (5-((R)-2-(2,5-difluorophenyl)pyrrolidin-1-yl)pyrazolo[1,5-a]pyrimidin-3-yl)((R)-3-hydroxypyrrolidin-1-yl)methanone], with 3.4%. Take `O=C(NC1CCOCC1)c1cnn2ccc(N3CCC[C@@H]3c3cc(F)ccc3F)nc12` [Example 20, (R)-5-(2-(2,5-difluorophenyl)pyrrolidin-1-yl)-N-(tetrahydro-2H-pyran-4-yl)pyrazolo[1,5-a]pyrimidine-3-carboxamide]: the inhibition at 1 µM turned out to be 78.9%. Then `Cn1cnc(CNC(=O)c2cnn3ccc(N4CCC[C@@H]4c4cc(F)ccc4F)nc23)c1` [Example 21, (R)-5-(2-(2,5-difluorophenyl)pyrrolidin-1-yl)-N-((1-methyl-1H-imidazol-4-yl)methyl) pyrazole[1,5-a]pyrimidine-3-carboxamide], with 5.8%; and `Cn1cc(CNC(=O)c2cnn3ccc(N4CCC[C@@H]4c4cc(F)ccc4F)nc23)cn1` [Example 22, (R)-5-(2-(2,5-difluorophenyl)pyrrolidin-1-yl)-N-((1-methyl-1H-pyrazol-4-yl)methyl)pyrazolo[1,5-a]pyrimidine-3-carboxamide], with 9.8%.

As for `O=C(NCCN1CCNC1=O)c1cnn2ccc(N3CCC[C@@H]3c3cc(F)ccc3F)nc12` [Example 24, (R)-5-(2-(2,5-difluorophenyl)pyrrolidin-1-yl)-N-(2-(2-oxoimidazolidin-1-yl)ethyl) pyrazole[1,5-a]pyrimidine-3-carboxamide], the inhibition at 1 µM turned out to be 11.5%. As for `O=C(NCCc1c[nH]cn1)c1cnn2ccc(N3CCC[C@@H]3c3cc(F)ccc3F)nc12` [Example 25, (R)—N-(2-(1H-imidazol-4-yl)ethyl)-5-(2-(2,5-difluorophenyl)pyrrolidin-1-yl)pyrazole [1,5-a]pyrimidine-3-carboxamide], the inhibition at 1 µM was 19.4%.

With `O=C(NC[C@@H](O)CO)c1cnn2ccc(N3CCC[C@@H]3c3cc(F)ccc3F)nc12` [Example 26, 5-((R)-2-(2,5-difluorophenyl)pyrrolidin-1-yl)-N—((R)-2,3-dihydroxypropyl)pyrazolo[1,5-a]pyrimidine-3-carboxamide], the inhibition at 1 µM was determined as 9.9%.

Regarding `CN(C)C(=O)c1cnn2ccc(N3CCC[C@@H]3c3cc(F)ccc3F)nc12` [Example 27, (R)-5-(2-(2,5-difluorophenyl)pyrrolidin-1-yl)-N,N-dimethylpyrazolo[1,5-a]pyrimidine-3-carboxamide], the inhibition at 1 µM was determined as 1.3%. Regarding `O=C(NCCn1ccnc1)c1cnn2ccc(N3CCC[C@@H]3c3cc(F)ccc3F)nc12` [Example 28, (R)—N-(2-(1H-imidazol-1-yl)ethyl)-5-(2-(2,5-difluorophenyl)pyrrolidin-1-yl)pyrazolo[1,5-a]pyrimidine-3-carboxamide], the inhibition at 1 µM came out at 5%.
